{"source": "patent US20230096766A1", "about": "“AMINO ACID HAVING FUNCTIONAL GROUP CAPABLE OF INTERMOLECULAR HYDROGEN BONDING, PEPTIDE COMPOUND CONTAINING SAME AND METHOD FOR PRODUCTION THEREOF” (Chugai Seiyaku Kabushiki Kaisha, priority 2018, published 2023)", "note": "*1 amine or outer side, *2 acyl side, *3 side chain or, on linkers, in order; H or OH if unused. Where a SMILES comes first, the peptide text is derived from it. Bridges are numbered along the chain shown (N, C = ends). [ ]: non-standard residue; d: D form. The star is where a group is joined. ξ: configuration not given here. hPhe(3-OMe,4-CONHMe) = CNC(=O)c1ccc(CC[C@H](N)C(=O)O)cc1OC; Phe(4-COOH) = N[C@@H](Cc1ccc(C(=O)O)cc1)C(=O)O; NMePhe(3-Cl) = CN[C@@H](Cc1cccc(Cl)c1)C(=O)O; ξGln(SO2Me) = CS(=O)(=O)NC(=O)CCC(N)C(=O)O; NMeW = CN[C@@H](Cc1c[nH]c2ccccc12)C(=O)O; NMehPhe = CN[C@@H](CCc1ccccc1)C(=O)O; X9 = O=C([C@@H](CN[*:1])COCCO)[*:2]; NMeF = CN[C@@H](Cc1ccccc1)C(=O)O; NMeGABA = CN(CCCC(=O)[*:2])[*:1]; NMeξIle = CC[C@H](C)C(NC)C(=O)O; NMeL = CN[C@@H](CC(C)C)C(=O)O; Butyl(3R-OH) = C[C@@H](O)CC*; ξNMeF = CNC(Cc1ccccc1)C(=O)O; NMeV = CN[C@H](C(=O)O)C(C)C; NMeAbu = CC[C@H](NC)C(=O)O; NMeA = CN[C@@H](C)C(=O)O; Piperidide = C1CCN(*)CC1; CH2CONHMe = CNC(=O)C*; NBuGly = CCCCNCC(=O)O; N(OH)Me = CN(O)*; Sar = CNCC(=O)O; tBu = CC(C)(C)*"}
{"assay": "in vitro", "conditions": "human, Caco-2, Caco-2", "units": {"Papp": "×10⁻⁶ cm/s"}}
{"smiles": "CCCCN1CC(=O)N(C)[C@@H](C(C)C)C(=O)N[C@H](C(=O)N2CCCCC2)CC(=O)N(C)[C@@H](CC)C(=O)NC(CCC(=O)NS(C)(=O)=O)C(=O)N(C)[C@@H](CC(C)C)C(=O)N(C)[C@@H](Cc2cccc(Cl)c2)C(=O)N[C@@H](CC(C)C)C(=O)N(C)[C@@H](Cc2ccccc2)C(=O)N(C)[C@@H](CC(C)C)C(=O)N[C@@H]([C@@H](C)O)C1=O", "note": "(stereo partly drawn) [pd63] ([NMeAbu][ξGln(SO2Me)][NMeL][NMePhe(3-Cl)]L[NMeF][NMeL]T[NBuGly][NMeV]D-Piperidide; lactam N-11)", "Papp": "< 0.1"}
{"assay": "in vitro", "conditions": "human, Caco-2, Caco-2 (cm/sec)", "units": {"Papp": "×10⁻⁶ cm/s"}}
{"smiles": "CC(C)C[C@H]1C(=O)N[C@@H](C(C)C)C(=O)N(C)[C@@H](Cc2ccccc2)C(=O)N(C)[C@@H](Cc2ccccc2)C(=O)N[C@@H](COC(C)(C)C)C(=O)N(C)[C@@H](CC(C)C)C(=O)N[C@@H]([C@@H](C)O)C(=O)N(C)[C@@H](Cc2ccccc2)C(=O)N(C)[C@@H](CC(C)C)C(=O)N[C@H](C(=O)N2CCCCC2)CC(=O)N(C)CCCC(=O)N1C", "note": "[pd216] ([NMeGABA][NMeL]V[NMeF][NMeF]S(tBu)[NMeL]T[NMeF][NMeL]D-Piperidide; lactam N-11)", "Papp": 1.2}
{"smiles": "CC(C)C[C@H]1C(=O)N[C@@H]([C@@H](C)O)C(=O)N(C)[C@@H](CC(C)C)C(=O)N(C)[C@@H](CC(C)C)C(=O)N[C@H](C(=O)N2CCCCC2)CC(=O)N(C)CCCC(=O)N(C)[C@@H](C(C)C)C(=O)N[C@@H](COCC[C@@H](C)O)C(=O)N(C)[C@@H](Cc2ccccc2)C(=O)N(C)[C@@H](Cc2cccc(Cl)c2)C(=O)N[C@@H](COC(C)(C)C)C(=O)N1C", "note": "[AP110] ([NMeGABA][NMeV]S(Butyl(3R-OH))[NMeF][NMePhe(3-Cl)]S(tBu)[NMeL]T[NMeL][NMeL]D-Piperidide; lactam N-11)", "Papp": 0.23}
{"smiles": "CC[C@H](C)[C@@H]1NC(=O)[C@H](CC(C)C)N(C)C(=O)CCCN(C)C(=O)C[C@@H](C(=O)N2CCCCC2)NC(=O)[C@H](CC(C)C)N(C)C(=O)[C@H](CC(C)C)N(C)C(=O)[C@H]([C@@H](C)O)NC(=O)[C@H](CC(C)C)N(C)C(=O)[C@H](CCc2ccc(C(=O)NC)c(OC)c2)NC(=O)[C@H](CC(C)C)N(C)C(=O)[C@H](Cc2ccccc2)N(C)C1=O", "note": "[AP202] ([NMeGABA][NMeL]I[NMeF][NMeL][hPhe(3-OMe,4-CONHMe)][NMeL]T[NMeL][NMeL]D-Piperidide; lactam N-11)", "Papp": 0.18}
{"smiles": "CCCCN1CC(=O)N(C)[C@@H](CC(C)C)C(=O)NC[C@@H](COCCO)C(=O)N(C)[C@@H](Cc2ccccc2)C(=O)N(C)[C@@H](CC(C)C)C(=O)N[C@H](C(=O)N2CCCCC2)CC(=O)N[C@H](CC(C)C)C(=O)N(C)[C@@H](CC(C)C)C(=O)N[C@@H](Cc2ccccc2)C(=O)N(C)[C@@H](CC(C)C)C(=O)N[C@@H]([C@@H](C)O)C1=O", "note": "[AP128] ([dL][NMeL]F[NMeL]T[NBuGly][NMeL][X9][NMeF][NMeL]D-Piperidide; lactam N-11)", "Papp": 0.78}
{"smiles": "CC[C@H]1C(=O)N[C@@H](CC(C)C)C(=O)N(C)[C@@H](CC(C)C)C(=O)N(C)C(Cc2ccccc2)C(=O)N[C@@H](CCc2ccc(C(=O)NC)c(OC)c2)C(=O)N(C)[C@@H](CC(C)C)C(=O)N(C)[C@@H](CC(C)C)C(=O)N[C@@H]([C@@H](C)O)C(=O)N(C)CC(=O)N(C)[C@@H](CC(C)C)C(=O)N[C@H](C(=O)N2CCCCC2)CC(=O)N1C", "note": "(stereo partly drawn) [AP204] ([NMeAbu]L[NMeL][ξNMeF][hPhe(3-OMe,4-CONHMe)][NMeL][NMeL]T[Sar][NMeL]D-Piperidide; lactam N-11)", "Papp": 1.6}
{"smiles": "CCCCN1CC(=O)N(C)[C@@H](CC(C)C)C(=O)N[C@@H](COC(C)(C)C)C(=O)N(C)[C@@H](Cc2ccccc2)C(=O)N(C)[C@@H](CC(C)C)C(=O)N[C@H](C(=O)N2CCCCC2)CC(=O)N[C@H](C(C)C)C(=O)N(C)[C@@H](C(C)C)C(=O)N[C@@H](Cc2ccc(C(=O)N(C)O)cc2)C(=O)N(C)[C@@H](CC(C)C)C(=O)N[C@@H]([C@@H](C)O)C1=O", "note": "[AP248] ([dV][NMeV][Phe(4-COOH)](N(OH)Me)[NMeL]T[NBuGly][NMeL]S(tBu)[NMeF][NMeL]D-Piperidide; lactam N-11)", "Papp": 0.24}
{"smiles": "CC(C)C[C@H]1C(=O)N[C@@H](COC(C)(C)C)C(=O)N(C)[C@@H](Cc2ccccc2)C(=O)N(C)[C@@H](C(C)C)C(=O)N[C@H](C(=O)N2CCCCC2)CC(=O)N[C@H](C(C)C)C(=O)N(C)[C@@H](C)C(=O)N[C@@H](C(C)C)C(=O)N(C)[C@@H](CC(C)C)C(=O)N[C@@H](Cc2ccc(O)cc2)C(=O)N(C)CC(=O)N1C", "note": "[pd121] ([dV][NMeA]V[NMeL]Y[Sar][NMeL]S(tBu)[NMeF][NMeV]D-Piperidide; lactam N-11)", "Papp": 1}
{"smiles": "CC[C@H](C)C1C(=O)N[C@@H]([C@@H](C)O)C(=O)N(C)CC(=O)N(C)[C@@H](CC(C)C)C(=O)N[C@H](C(=O)N2CCCCC2)CC(=O)N(C)[C@@H](C)C(=O)N[C@@H](CC(C)C)C(=O)N(C)[C@@H](CC(C)C)C(=O)N(C)[C@@H](Cc2c[nH]c3ccccc23)C(=O)N[C@@H](C(C)C)C(=O)N(C)[C@@H](CC(C)C)C(=O)N1C", "note": "(stereo partly drawn) [pd102] ([NMeA]L[NMeL][NMeW]V[NMeL][NMeξIle]T[Sar][NMeL]D-Piperidide; lactam N-11)", "Papp": 1.1}
{"smiles": "CC(C)C[C@@H]1NC(=O)[C@H](CC(C)C)N(C)C(=O)[C@H](C)N(C)C(=O)C[C@@H](C(=O)N(C)[C@@H](Cc2ccccc2)C(=O)N[C@@H](C)C(=O)N2CCCCC2)NC(=O)[C@H]([C@@H](C)O)NC(=O)[C@H](CC(C)C)N(C)C(=O)[C@H](Cc2ccccc2)NC(=O)[C@H](Cc2ccccc2)N(C)C(=O)[C@H](CC(C)C)N(C)C1=O", "note": "[pd218] ([NMeA][NMeL]L[NMeL][NMeF]F[NMeL]TD[NMeF]A-Piperidide; lactam N-9)", "Papp": 1.1}
{"assay": "in vitro", "conditions": "human, Caco-2, Caco-2 (cm/sec) Papp", "units": {"Papp": "×10⁻⁶ cm/s"}}
{"smiles": "CC(C)C[C@@H]1NC(=O)[C@H](Cc2ccccc2)N(C)C(=O)C[C@@H](C(=O)N2CCCCC2)NC(=O)[C@H](CC(C)C)N(C)C(=O)CN(C)C(=O)[C@H]([C@@H](C)O)NC(=O)[C@H](Cc2ccccc2)N(C)C(=O)[C@H](Cc2ccccc2)N(C)C(=O)[C@H](CC(C)C)NC(=O)[C@H](Cc2ccccc2)N(C)C(=O)[C@H](CC(C)C)N(C)C1=O", "note": "[pd227] ([NMeF]L[NMeL][NMeF]L[NMeF][NMeF]T[Sar][NMeL]D-Piperidide; lactam N-11)", "Papp": 0.61}
{"smiles": "CC(C)C[C@@H]1NC(=O)[C@H](Cc2ccccc2)N(C)C(=O)[C@H]([C@@H](C)O)NC(=O)[C@H](Cc2ccccc2)NC(=O)[C@H](Cc2ccccc2)N(C)C(=O)C[C@@H](C(=O)N2CCCCC2)NC(=O)[C@H](C)N(C)C(=O)[C@H](CC(C)C)N(C)C(=O)CN(C)C(=O)[C@H](CC(C)C)N(C)C(=O)[C@H](Cc2ccccc2)N(C)C1=O", "note": "[pd230] ([NMeF]FT[NMeF]L[NMeF][NMeL][Sar][NMeL][NMeA]D-Piperidide; lactam N-11)", "Papp": 0.25}
{"assay": "in vitro", "conditions": "human, Caco-2, Caco-2 (membrane permeability)", "units": {"Papp": "×10⁻⁶ cm/s"}}
{"smiles": "CCCCN1CC(=O)N(C)[C@@H](CC(C)C)C(=O)N[C@@H](COCC(=O)NC)C(=O)N(C)[C@@H](CCc2ccccc2)C(=O)N(C)[C@@H](CC(C)C)C(=O)N[C@H](C(=O)N2CCCCC2)CC(=O)N[C@H](CC(C)C)C(=O)N(C)[C@@H](CC(C)C)C(=O)N[C@@H](Cc2ccccc2)C(=O)N(C)[C@@H](CC(C)C)C(=O)N[C@@H]([C@@H](C)O)C1=O", "note": "[Compound I02] ([dL][NMeL]F[NMeL]T[NBuGly][NMeL]S(CH2CONHMe)[NMehPhe][NMeL]D-Piperidide; lactam N-11)", "Papp": 0.052}
